# Source: patent US12590091B2, “1H-pyrrolo[3,2-C]pyridine and 1H-pyrrolo[2,3-C]pyridine derivatives as TLR9 inhibitors for the treatment of fibrosis” (BRISTOL-MYERS SQUIBB COMPANY, priority 2020, dated 2026)
# Columns and labels:
# human TLR7 = biological target: T1, human TLR7 (Homo sapiens, UniProt Q9NYK1); experiment: TLR7 inhibition reporter assay (HEK-Blue cells, SEAP reporter); format: cell-based; settings: HEK-Blue cells overexpressing human TLR7, stimulated with gardiquimod 7.5 μM, 22 hour incubation
# T1 construct: host or cells: HEK-Blue cells
# T1 sequence (Q9NYK1 27-1049): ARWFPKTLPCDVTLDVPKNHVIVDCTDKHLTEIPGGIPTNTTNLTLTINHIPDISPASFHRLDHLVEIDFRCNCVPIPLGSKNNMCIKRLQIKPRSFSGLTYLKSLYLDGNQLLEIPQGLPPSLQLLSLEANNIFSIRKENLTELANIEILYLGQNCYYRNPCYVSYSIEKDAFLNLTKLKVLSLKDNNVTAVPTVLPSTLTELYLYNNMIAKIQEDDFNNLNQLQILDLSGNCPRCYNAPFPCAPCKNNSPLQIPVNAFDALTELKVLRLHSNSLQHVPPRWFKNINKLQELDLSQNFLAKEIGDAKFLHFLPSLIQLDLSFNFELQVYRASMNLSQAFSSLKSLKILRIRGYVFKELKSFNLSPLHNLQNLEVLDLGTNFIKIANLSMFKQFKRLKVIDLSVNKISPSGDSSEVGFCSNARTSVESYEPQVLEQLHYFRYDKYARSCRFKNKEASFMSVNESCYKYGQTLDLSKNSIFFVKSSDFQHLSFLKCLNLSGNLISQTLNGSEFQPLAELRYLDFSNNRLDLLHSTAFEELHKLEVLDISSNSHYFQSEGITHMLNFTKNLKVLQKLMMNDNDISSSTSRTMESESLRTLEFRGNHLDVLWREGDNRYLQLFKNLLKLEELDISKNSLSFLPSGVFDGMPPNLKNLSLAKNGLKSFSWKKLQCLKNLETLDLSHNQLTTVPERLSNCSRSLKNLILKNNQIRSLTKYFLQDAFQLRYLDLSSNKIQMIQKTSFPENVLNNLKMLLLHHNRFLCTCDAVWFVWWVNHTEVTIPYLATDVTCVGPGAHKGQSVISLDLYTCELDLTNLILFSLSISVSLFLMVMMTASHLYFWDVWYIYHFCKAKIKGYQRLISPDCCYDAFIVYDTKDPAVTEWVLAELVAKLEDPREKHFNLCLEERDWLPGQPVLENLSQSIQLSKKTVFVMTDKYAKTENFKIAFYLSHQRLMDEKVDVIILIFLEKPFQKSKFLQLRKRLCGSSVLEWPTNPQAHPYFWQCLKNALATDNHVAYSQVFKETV
# Method in brief: (§1)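 Screening used HEK-Blue cells overexpressing one human TLR (7, 8 or 9) and an IFN-β minimal promoter–NF-κB/AP-1 SEAP construct. Stimulation lasted 22 h at 37 °C with receptor-specific agonist: gardiquimod, R848 or ODN2006 at 7.5 μM, 15.9 μM and 5 nM.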
# human TLR8 = biological target: T2, human TLR8 (Homo sapiens, UniProt Q9NR97); experiment: TLR8 inhibition reporter assay (HEK-Blue cells, SEAP reporter); format: cell-based; settings: HEK-Blue cells overexpressing human TLR8, stimulated with R848 15.9 μM, 22 hour incubation
# T2 construct: host or cells: HEK-Blue cells
# T2 sequence (Q9NR97 27-1041): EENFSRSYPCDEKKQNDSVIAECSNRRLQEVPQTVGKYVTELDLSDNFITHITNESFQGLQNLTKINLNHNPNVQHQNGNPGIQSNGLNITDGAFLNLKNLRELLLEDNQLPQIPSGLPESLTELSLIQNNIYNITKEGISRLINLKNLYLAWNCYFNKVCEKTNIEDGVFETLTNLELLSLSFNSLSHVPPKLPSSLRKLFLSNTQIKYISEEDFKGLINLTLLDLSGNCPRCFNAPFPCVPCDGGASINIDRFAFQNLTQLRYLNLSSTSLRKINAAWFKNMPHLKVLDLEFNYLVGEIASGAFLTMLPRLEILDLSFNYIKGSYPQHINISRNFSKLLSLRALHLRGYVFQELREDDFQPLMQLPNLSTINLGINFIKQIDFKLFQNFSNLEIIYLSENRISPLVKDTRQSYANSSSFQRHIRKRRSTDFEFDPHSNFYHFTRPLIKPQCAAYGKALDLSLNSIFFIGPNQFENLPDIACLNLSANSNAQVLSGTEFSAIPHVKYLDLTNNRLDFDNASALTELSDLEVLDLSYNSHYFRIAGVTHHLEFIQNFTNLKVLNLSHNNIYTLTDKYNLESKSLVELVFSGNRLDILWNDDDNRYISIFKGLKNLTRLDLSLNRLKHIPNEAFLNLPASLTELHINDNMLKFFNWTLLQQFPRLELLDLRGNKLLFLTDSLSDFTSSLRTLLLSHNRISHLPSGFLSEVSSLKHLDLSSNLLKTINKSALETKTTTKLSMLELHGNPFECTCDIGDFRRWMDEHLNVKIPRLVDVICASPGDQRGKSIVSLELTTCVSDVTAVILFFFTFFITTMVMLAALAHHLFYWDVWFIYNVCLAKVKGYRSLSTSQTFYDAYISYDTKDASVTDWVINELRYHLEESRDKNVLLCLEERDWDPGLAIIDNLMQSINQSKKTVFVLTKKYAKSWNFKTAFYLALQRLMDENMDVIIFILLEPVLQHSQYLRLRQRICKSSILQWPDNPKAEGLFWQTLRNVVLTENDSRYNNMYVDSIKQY
# Method in brief: as §1
IC50 (human TLR7),IC50 (human TLR8),SMILES
1.3 µM,1.1 µM,"Cc1nc(-c2ccc(C3(O)CCN(C(C)C)CC3)cc2F)cc2c1cc(-c1ccc(S(C)(=O)=O)cc1)n2C [Example 109, 4-(4-(1,4-dimethyl-2-(4-(methylsulfonyl)phenyl)-1H-pyrrolo[3,2-c]pyridin-6-yl)-3-fluorophenyl)-1-isopropylpiperidin-4-ol]"
3.1 µM,11.3 µM,"CC(C)N1CCN(Cc2ccc(-c3cc4c(cc(-c5ccc(S(C)(=O)=O)cc5)n4C)c(C(C)(C)O)n3)cc2)CC1 [Example 125, 2-(6-(4-((4-isopropylpiperazin-1-yl)methyl)phenyl)-1-methyl-2-(4-(methylsulfonyl)phenyl)-1H-pyrrolo[3,2-c]pyridin-4-yl)propan-2-ol]"
1.1 µM,0.2 µM,"Cc1nc(-c2ccc([C@@]3(O)CCN(C(C)C)C(C)(C)C3)c(F)c2)cc2c1cc(-c1ccc(S(C)(=O)=O)cc1)n2C [Example 105, (R)-4-(4-(1,4-dimethyl-2-(4-(methylsulfonyl)phenyl)-1H-pyrrolo[3,2-c]pyridin-6-yl)-2-fluorophenyl)-1-isopropyl-2,2-dimethylpiperidin-4-ol]"
1.5 µM,1.7 µM,"COc1ccc(-c2cc3cnc(-c4ccc(N5CCN(C(C)C)CC5)nc4)cc3n2C)cc1OC [Example 31, 2-(3,4-dimethoxyphenyl)-6-(6-(4-isopropylpiperazin-1-yl)pyridin-3-yl)-1-methyl-1H-pyrrolo[3,2-c]pyridine]"
26 µM,> 50 µM,"COc1ccc(-c2c(C)[nH]c3cnc(C4CCN(C(=O)CN5CCCC5)CC4)cc23)cc1OC [Example 21, 1-(4-(3-(3,4-dimethoxyphenyl)-2-methyl-1H-pyrrolo[2,3-c]pyridin-5-yl)piperidin-1-yl)-2-(pyrrolidin-1-yl)ethan-1-one]"
14 µM,> 50 µM,"COc1ccc(-c2c(C)[nH]c3cnc(C4CCN(C5CCN(C(=O)C(C)C)CC5)CC4)cc23)cc1OC [Example 15, 1-(4-(3-(3,4-dimethoxyphenyl)-2-methyl-1H-pyrrolo[2,3-c]pyridin-5-yl)-[1,4′-bipiperidin]-1′-yl)-2-methylpropan-1-one]"
> 50 µM,20.5 µM,"COc1ccc(-c2cc3cnc(C4CCN(Cc5ccc(C(F)(F)F)nc5)CC4)cc3n2C)cc1OC [Example 28, 2-(3,4-dimethoxyphenyl)-1-methyl-6-(1-((6-(trifluoromethyl)pyridin-3-yl)methyl)piperidin-4-yl)-1H-pyrrolo[3,2-c]pyridine]"
9.7 µM,> 50 µM,"COc1ccc(-c2c(C)[nH]c3cnc(C4CCN(C(=O)CN(C)C)CC4)cc23)cc1OC [Example 22, 1-(4-(3-(3,4-dimethoxyphenyl)-2-methyl-1H-pyrrolo[2,3-c]pyridin-5-yl)piperidin-1-yl)-2-(dimethylamino)ethan-1-one]"
11.7 µM,> 25 µM,"Cc1nc(-c2ccc(N3CCN(C4CCOC4)CC3)cc2)cc2c1cc(-c1ccc(S(C)(=O)=O)cc1)n2C (centres unmarked) [Example 37, 1,4-dimethyl-2-(4-(methylsulfonyl)phenyl)-6-(4-(4-(tetrahydrofuran-3-yl)piperazin-1-yl)phenyl)-1H-pyrrolo[3,2-c]pyridine]"
6.5 µM,10.5 µM,"Cc1nc(-c2ccc(C3(O)CCN(C(C)C)CC3)cc2)cc2c1cc(-c1ccc(S(C)(=O)=O)cc1)n2C [Example 88, 4-(4-(1,4-dimethyl-2-(4-(methylsulfonyl)phenyl)-1H-pyrrolo[3,2-c]pyridin-6-yl)phenyl)-1-isopropylpiperidin-4-ol]"
0.64 µM,1.2 µM,"Cc1nc(-c2ccc(CN3CCN(CC(C)(C)O)CC3)cc2)cc2c1cc(-c1ccc(S(C)(=O)=O)cc1)n2C [Example 44, 1-(4-(4-(1,4-Dimethyl-2-(4-(methylsulfonyl)phenyl)-1H-pyrrolo[3,2-c]pyridin-6-yl)benzyl)piperazin-1-yl)-2-methylpropan-2-ol]"
2.2 µM,4 µM,"Cc1nc(-c2ccc(C3(O)CCN(C4CC4)CC3)cc2)cc2c1cc(-c1ccc(S(C)(=O)=O)cc1)n2C [Example 87, 1-cyclopropyl-4-(4-(1,4-dimethyl-2-(4-(methylsulfonyl)phenyl)-1H-pyrrolo[3,2-c]pyridin-6-yl)phenyl)piperidin-4-ol]"
2.2 µM,> 50 µM,"Cc1nc(-c2ccc(N3CCN(CC(C)C)CC3)cc2)cc2c1cc(-c1ccc(S(C)(=O)=O)cc1)n2C [Example 34, 6-(4-(4-isobutylpiperazin-1-yl)phenyl)-1,4-dimethyl-2-(4-(methylsulfonyl)phenyl)-1H-pyrrolo[3,2-c]pyridine]"
4.5 µM,> 50 µM,"COc1ccc(-c2cc3cnc(C4CCN(C(=O)CN5CCCCC5)CC4)cc3n2C)cc1OC [Example 25, 1-(4-(2-(3,4-dimethoxyphenyl)-1-methyl-1H-pyrrolo[3,2-c]pyridin-6-yl)piperidin-1-yl)-2-(piperidin-1-yl)ethan-1-one]"
3.1 µM,0.86 µM,"Cc1nc(-c2ccc(CN3C[C@@H]4CC[C@H]3CN4CCC(C)(C)O)cc2)cc2c1cc(-c1ccc(S(C)(=O)=O)cc1)n2C [Example 61, 4-((1S,4S)-5-(4-(1,4-dimethyl-2-(4-(methylsulfonyl)phenyl)-1H-pyrrolo[3,2-c]pyridin-6-yl)benzyl)-2,5-diazabicyclo[2.2.2]octan-2-yl)-2-methylbutan-2-ol]"
23.7 µM,> 25 µM,"Cc1nc(-c2ccc(N3CCN(CCO)CC3)c(F)c2)cc2c1cc(-c1ccc(S(C)(=O)=O)cc1)n2C [Example 69, 2-(4-(4-(1,4-dimethyl-2-(4-(methylsulfonyl)phenyl)-1H-pyrrolo[3,2-c]pyridin-6-yl)-2-fluorophenyl)piperazin-1-yl)ethan-1-ol]"
1.7 µM,21 µM,"COc1ccc(-c2[nH]c3cnc(-c4ccc(N5CCN(C(C)C)CC5)cc4)cc3c2C)cc1OC [Example 1, 2-(3,4-Dimethoxyphenyl)-5-(4-(4-isopropylpiperazin-1-yl)phenyl)-3-methyl-1H-pyrrolo[2,3-c]pyridine]"
12.9 µM,17.2 µM,"Cc1nc(-c2ccc(CN3CCC(C)(O)CC3)cc2)cc2c1cc(-c1ccc(S(C)(=O)=O)cc1)n2C [Example 59, 1-(4-(1,4-dimethyl-2-(4-(methylsulfonyl)phenyl)-1H-pyrrolo[3,2-c]pyridin-6-yl)benzyl)-4-methylpiperidin-4-ol]"
8.2 µM,> 50 µM,"COc1ccc(-c2c(C)[nH]c3cnc(C4CCN(C(=O)C5CCN(C6CC6)CC5)CC4)cc23)cc1OC [Example 5, (1-Cyclopropylpiperidin-4-yl)(4-(3-(3,4-dimethoxyphenyl)-2-methyl-1H-pyrrolo[2,3-c]pyridin-5-yl)piperidin-1-yl)methanone]"
